Data taken from patent publication US20060110451A1, “Formulations of [1,4]diazepino[6,7,1-IJ]quinoline derivatives” (priority 2004, published 2006).
Like-named read-outs stand apart in the source and are kept apart here.

What was measured:
[1] = molecular target: T1, 5-HT2C (Homo sapiens, UniProt P28335); settings: cited from earlier work
T1 sequence (P28335 33-458): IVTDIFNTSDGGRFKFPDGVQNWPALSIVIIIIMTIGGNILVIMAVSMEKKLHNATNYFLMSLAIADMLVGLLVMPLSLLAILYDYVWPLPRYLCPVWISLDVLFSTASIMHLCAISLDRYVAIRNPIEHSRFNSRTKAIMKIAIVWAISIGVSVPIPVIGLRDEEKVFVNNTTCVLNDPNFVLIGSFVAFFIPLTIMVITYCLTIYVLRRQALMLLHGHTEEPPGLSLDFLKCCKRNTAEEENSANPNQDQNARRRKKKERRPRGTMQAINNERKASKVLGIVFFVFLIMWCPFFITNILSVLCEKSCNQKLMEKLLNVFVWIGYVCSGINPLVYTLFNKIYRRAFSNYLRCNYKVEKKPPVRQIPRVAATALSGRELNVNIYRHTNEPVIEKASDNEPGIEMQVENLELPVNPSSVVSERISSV

[2] = Early toxicology testing in dogs; type: in vivo; settings: oral suspension
Description: Enteric-coated capsules were developed which delayed the release of the drug. […] For human clinical studies, enteric-coated pellets were developed which provided advantages over enteric-coated capsules for dose flexibility and more uniform release in the intestinal tract.

[3] = Ascending multiple dose pharmacokinetics of enteric coated capsules in healthy subjects; type: in vivo, human; settings: for Tmax / half-life / AUC(0-t) / Cmax / AUC(0-inf): human, plasma
Procedure: Ascending multiple doses of 25, 50, 75, 100, 150, and 250 mg Compound A.HCl were administered as twice-daily regimen (q12h) for 14 days in cohorts of 8 healthy subjects (6 active and 2 placebo). Blood samples for Compound A.HCl analysis were obtained on days 1 and 14 within 2 hours of test article administration and at various time points from 0.5 to 48 hours after test article administration. Doses were administered orally after an overnight fast of at least 10 hours on these 2 days. Trough PK samples were collected on days 7, 10, and 12 to assess whether steady-state had been reached.
A total of 48 subjects contributed pharmacokinetic data for this analysis. […] FIGS. 4A and 4B show the relationship between Cmax vs. dose and AUC vs. dose, respectively.

Cl.c1cc2c3c(c1)[C@H]1CCC[C@H]1CN3CCNC2 [Compound A.HCl, (9aR,12aS)-4,5,6,7,9,9a,10,11,12,12a-decahydrocyclopenta[c][1,4]diazepino[6,7,1-ij]quinoline hydrochloride]
5-HT2C agonist activity [1]: potent 5-HT2C agonist
reaction noted in toxicology testing [2]: emetic reaction
steady-state Cl/F lower in comparison to the lower dose groups ([3]; 250 mg q12h dose): 54-60%
time of minor secondary peak ([3]; day 14 (steady state), most subjects, all dose groups): 24 to 28 h
dose-proportionality of single dose and steady-state AUC and Cmax ([3]; dose range 25 to 150 mg q12h): approximately linear dose-proportionality
Tmax ([3]; oral, healthy subjects, single and multiple dose administration, enteric-coated formulation, 25-250 mg, read-out: mean Tmax): 4 to 6 h
half-life ([3]; oral, multiple dose, read-out: mean elimination t1/2): 6 to 8 h
half-life ([3]; oral, single dose, read-out: mean elimination t1/2): 8 to 11 h
AUC(0-t) ([3]; po, 25 mg, healthy subjects, multiple oral doses (q12 h) 25 mg, day 14, read-out: AUCss (AUC0-12) (Geom. Mean)): 8 ng·h/mL
AUC(0-t) ([3]; po, 25 mg, healthy subjects, multiple oral doses (q12 h) 25 mg, day 14, read-out: AUCss (AUC0-12) (Mean)): ~8.73 ng·h/mL
Cmax ([3]; po, 25 mg, healthy subjects, multiple oral doses (q12 h) 25 mg, day 14, read-out: Cmax (Geom. Mean)): 1.16 ng/mL
Cmax ([3]; po, 25 mg, healthy subjects, multiple oral doses (q12 h) 25 mg, day 14, read-out: Cmax (Mean)): 1.22 ng/mL
Tmax ([3]; po, 25 mg, healthy subjects, multiple oral doses (q12 h) 25 mg, day 14, read-out: Tmax (Geom. Mean)): 3.7 h
Tmax ([3]; po, 25 mg, healthy subjects, multiple oral doses (q12 h) 25 mg, day 14, read-out: Tmax (Mean)): 4 h
half-life ([3]; po, 25 mg, healthy subjects, multiple oral doses (q12 h) 25 mg, day 14, read-out: t1/2 (Geom. Mean) (converted)): 6.25 h
half-life ([3]; po, 25 mg, healthy subjects, multiple oral doses (q12 h) 25 mg, day 14, read-out: t1/2 (Mean) (converted)): 6.35 h
Cmax ([3]; po, 25 mg, healthy subjects, single oral dose 25 mg, day 1, read-out: Cmax (Geom. Mean)): 0.81 ng/mL
Cmax ([3]; po, 25 mg, healthy subjects, single oral dose 25 mg, day 1, read-out: Cmax (Mean)): 0.87 ng/mL
Tmax ([3]; po, 25 mg, healthy subjects, single oral dose 25 mg, day 1, read-out: Tmax (Geom. Mean)): 5 h
Tmax ([3]; po, 25 mg, healthy subjects, single oral dose 25 mg, day 1, read-out: Tmax (Mean)): 5.2 h
AUC(0-t) ([3]; po, 50 mg, healthy subjects, multiple oral doses (q12 h) 50 mg, day 14, read-out: AUCss (AUC0-12) (Geom. Mean)): 25.3 ng·h/mL
AUC(0-t) ([3]; po, 50 mg, healthy subjects, multiple oral doses (q12 h) 50 mg, day 14, read-out: AUCss (AUC0-12) (Mean)): ~26.5 ng·h/mL
Cmax ([3]; po, 50 mg, healthy subjects, multiple oral doses (q12 h) 50 mg, day 14, read-out: Cmax (Geom. Mean)): 3.27 ng/mL
Cmax ([3]; po, 50 mg, healthy subjects, multiple oral doses (q12 h) 50 mg, day 14, read-out: Cmax (Mean)): 3.39 ng/mL
Tmax ([3]; po, 50 mg, healthy subjects, multiple oral doses (q12 h) 50 mg, day 14, read-out: Tmax (Geom. Mean)): 5.6 h
Tmax ([3]; po, 50 mg, healthy subjects, multiple oral doses (q12 h) 50 mg, day 14, read-out: Tmax (Mean)): 5.7 h
half-life ([3]; po, 50 mg, healthy subjects, multiple oral doses (q12 h) 50 mg, day 14, read-out: t1/2 (Geom. Mean) (converted)): 7.58 h
half-life ([3]; po, 50 mg, healthy subjects, multiple oral doses (q12 h) 50 mg, day 14, read-out: t1/2 (Mean) (converted)): 7.64 h
AUC(0-inf) ([3]; po, 50 mg, healthy subjects, single oral dose 50 mg, day 1, read-out: AUC0-∞ (Geom. Mean)): 22.8 ng·h/mL
AUC(0-inf) ([3]; po, 50 mg, healthy subjects, single oral dose 50 mg, day 1, read-out: AUC0-∞ (Mean)): 23.5 ng·h/mL
Cmax ([3]; po, 50 mg, healthy subjects, single oral dose 50 mg, day 1, read-out: Cmax (Geom. Mean)): 2.29 ng/mL
Cmax ([3]; po, 50 mg, healthy subjects, single oral dose 50 mg, day 1, read-out: Cmax (Mean)): 2.35 ng/mL
Tmax ([3]; po, 50 mg, healthy subjects, single oral dose 50 mg, day 1, read-out: Tmax (Geom. Mean)): 5 h
Tmax ([3]; po, 50 mg, healthy subjects, single oral dose 50 mg, day 1, read-out: Tmax (Mean)): 5.3 h
half-life ([3]; po, 50 mg, healthy subjects, single oral dose 50 mg, day 1, read-out: t1/2 (Geom. Mean) (converted)): 9.69 h
half-life ([3]; po, 50 mg, healthy subjects, single oral dose 50 mg, day 1, read-out: t1/2 (Mean) (converted)): 10.7 h
AUC(0-t) ([3]; po, 75 mg, healthy subjects, multiple oral doses (q12 h) 75 mg, day 14, read-out: AUCss (AUC0-12) (Geom. Mean)): 24.1 ng·h/mL
AUC(0-t) ([3]; po, 75 mg, healthy subjects, multiple oral doses (q12 h) 75 mg, day 14, read-out: AUCss (AUC0-12) (Mean)): ~24.9 ng·h/mL
Cmax ([3]; po, 75 mg, healthy subjects, multiple oral doses (q12 h) 75 mg, day 14, read-out: Cmax (Geom. Mean)): 2.92 ng/mL
Cmax ([3]; po, 75 mg, healthy subjects, multiple oral doses (q12 h) 75 mg, day 14, read-out: Cmax (Mean)): 3.05 ng/mL
Tmax ([3]; po, 75 mg, healthy subjects, multiple oral doses (q12 h) 75 mg, day 14, read-out: Tmax (Geom. Mean)): 6.3 h
Tmax ([3]; po, 75 mg, healthy subjects, multiple oral doses (q12 h) 75 mg, day 14, read-out: Tmax (Mean)): 6.3 h
half-life ([3]; po, 75 mg, healthy subjects, multiple oral doses (q12 h) 75 mg, day 14, read-out: t1/2 (Geom. Mean) (converted)): 6.38 h
half-life ([3]; po, 75 mg, healthy subjects, multiple oral doses (q12 h) 75 mg, day 14, read-out: t1/2 (Mean) (converted)): 6.45 h
AUC(0-inf) ([3]; po, 75 mg, healthy subjects, single oral dose 75 mg, day 1, read-out: AUC0-∞ (Geom. Mean)): 16.8 ng·h/mL
AUC(0-inf) ([3]; po, 75 mg, healthy subjects, single oral dose 75 mg, day 1, read-out: AUC0-∞ (Mean)): 16.9 ng·h/mL
Cmax ([3]; po, 75 mg, healthy subjects, single oral dose 75 mg, day 1, read-out: Cmax (Geom. Mean)): 1.56 ng/mL
Cmax ([3]; po, 75 mg, healthy subjects, single oral dose 75 mg, day 1, read-out: Cmax (Mean)): 1.6 ng/mL
Tmax ([3]; po, 75 mg, healthy subjects, single oral dose 75 mg, day 1, read-out: Tmax (Geom. Mean)): 5.3 h
Tmax ([3]; po, 75 mg, healthy subjects, single oral dose 75 mg, day 1, read-out: Tmax (Mean)): 5.5 h
